This note sets out measurements from US20100120732A1, “AGENT FOR PREVENTION AND/OR TREATMENT OF SYSTEMIC LUPUS ERYTHEMATOSUS” (KOWA CO., LTD., priority 2007, published 2010).

In assay [1] the test system is IFN-γ mRNA in the kidney. Put plainly: IFN-γ mRNA expression in the kidney of SLE model mice (Real-Time RT-PCR). Particulars: Drug A 30 mg/kg twice a day, Drug B 3 mg/kg once a day, oral, 10 weeks; for IFN-γ Relative index: kidney mRNA relative to control group = 1.000; for IFN-γ mRNA expression level (%): kidney, female NZB/WF1 mice, control = 100%, mean ± standard error of 10 to 11 mice. The assay is classed as in vivo, NZB/WF1 mice. The protocol:
(§1) Actions of suppressing the expression of disease-associated genes in the kidney by the administration of 2-benzyl-5-(4-chlorophenyl)-6-[4-(methylthio)phenyl]-2H-pyridazine-3-one (hereinafter referred to as Drug A) and prednisolone (hereinafter referred to as Drug B) in combination and the administration of each drug alone were evaluated by using NZB×NZW (NZB/W)F1 mice widely known as spontaneous SLE models.
(§2) Female NZB/WF1 mice (Japan SLC, Inc.) were used as test animals.
(§3) The bodyweight of 20-week-old NZB/WF1 mice was measured. By using the body weight as an index, the mice were divided into groups through one-parameter-based block randomization so that each group becomes uniform.
(§4) Drug administration was conducted from the day after the grouping to 10 weeks thereafter. To a group for sole administration of Drug A, a dose of 30 mg/kg was orally administered, twice a day, in the morning (9:00 to 11:00) and in the evening (15:30 to 17:30). Further, to a group for sole administration of Drug B, a dose of 3 mg/kg was orally administered, once a day, in the daytime (11:30 to 13:30). On the other hand, to a group for combined administration of Drug A and Drug B, 30 mg/kg of Drug A was orally administered in the morning (9:00 to 11:00) and in the evening (15:30 to 17:30), and 3 mg/kg of Drug B was orally administered in the daytime (11:30 to 13:30).
(§5) 10 weeks after the grouping (at the time of 30 weeks old), the kidney was excised from each individual and horizontally divided into two portions. After that, the kidney was subjected to RNase inactivation treatment that involves immersing the kidney in RNAlater (manufactured by QIAGEN GmbH) at 4° C. for 24 hours. […] The mRNA expression levels of SLE-associated genes (IFN-y (probe No.: Mm00801778_m1), TNF-α (probe No.: Mm00443258_m1), IL-1β (probe No.: Mm00434228_m1), BAFF (probe No.: Mm00446347_m1), IFIT1 (probe No.: Mm00515153_m1), and IP-10 (probe No.: Mm00445235_m1)) were determined by using ABI PRISM (registered trademark) 7900 Sequence Detection System (manufactured by Applied Biosystems, Inc.) and TaqMan (registered trademark) Gene Expression Assays (manufactured by Applied Biosystems, Inc.) by Real-Time RT-PCR method. […]
(§6) Tables 1 to 6 and FIGS. 1 to 6 each show the mRNA expression levels of IFN-γ (Table 1, FIG. 1), TNF-α (Table 2, FIG. 2), IL-1β (Table 3, FIG. 3), BAFF (Table 4, FIG. 4), IFIT1 (Table 5, FIG. 5), and IP-10 (Table 6, FIG. 6) in the kidney in a control group, a group for sole administration of 30 mg/kg of Drug A, a group for sole administration of 3 mg/kg of Drug B, and a group for combined administration of both Drugs. […] The mRNA expression level is expressed as mean±standard error of 10 to 11 mice in each group. […]
Background: Quantitative PCR measures a nucleic acid by following its amplification.

For assay [2], the system named is TNF-α mRNA in the kidney. Put plainly: TNF-α mRNA expression in the kidney of SLE model mice (Real-Time RT-PCR). The assay is classed as in vivo, NZB/WF1 mice. The conditions noted are these: Drug A 30 mg/kg twice a day, Drug B 3 mg/kg once a day, oral, 10 weeks; for TNF-α Relative index: kidney mRNA relative to control group = 1.000; for TNF-α mRNA expression level (%): kidney, female NZB/WF1 mice, control = 100%, mean ± standard error of 10 to 11 mice. The protocol:
as §1, §2, §3, §4, §5, §6

In assay [3] the test system is IL-1β mRNA in the kidney. Nature of the assay: IL-1β mRNA expression in the kidney of SLE model mice (Real-Time RT-PCR). The assay is classed as in vivo, NZB/WF1 mice. The conditions noted are these: Drug A 30 mg/kg twice a day, Drug B 3 mg/kg once a day, oral, 10 weeks; for IL-1β Relative index: kidney mRNA relative to control group = 1.000; for IL-1β mRNA expression level (%): kidney, female NZB/WF1 mice, control = 100%, mean ± standard error of 10 to 11 mice. The protocol: as §1, §2, §3, §4, §5, §6

The subject of assay [4] is BAFF mRNA in the kidney. Put plainly: BAFF mRNA expression in the kidney of SLE model mice (Real-Time RT-PCR). Format: in vivo, NZB/WF1 mice. Particulars: Drug A 30 mg/kg twice a day, Drug B 3 mg/kg once a day, oral, 10 weeks; for BAFF Relative index: kidney mRNA relative to control group = 1.000; for BAFF mRNA expression level (%): kidney, female NZB/WF1 mice, control = 100%, mean ± standard error of 10 to 11 mice. Here is the method:
as §1, §2, §3, §4, §5, §6

Assay [5] relates to IFIT1 mRNA in the kidney. Put plainly: IFIT1 mRNA expression in the kidney of SLE model mice (Real-Time RT-PCR). Format: in vivo, NZB/WF1 mice. Particulars: Drug A 30 mg/kg twice a day, Drug B 3 mg/kg once a day, oral, 10 weeks; for IFIT1 Relative index: kidney mRNA relative to control group = 1.000; for IFIT1 mRNA expression level (%): kidney, female NZB/WF1 mice, control = 100%, mean ± standard error of 10 to 11 mice. The protocol: as §1, §2, §3, §4, §5, §6

The subject of assay [6] is IP-10 mRNA in the kidney. Nature of the assay: IP-10 mRNA expression in the kidney of SLE model mice (Real-Time RT-PCR). Particulars: Drug A 30 mg/kg twice a day, Drug B 3 mg/kg once a day, oral, 10 weeks; for IP-10 Relative index: kidney mRNA relative to control group = 1.000; for IP-10 mRNA expression level (%): kidney, female NZB/WF1 mice, control = 100%, mean ± standard error of 10 to 11 mice. The assay is classed as in vivo, NZB/WF1 mice. The protocol:
as §1, §2, §3, §4, §5, §6

Assay [7] has as its system SLE-associated genes in the kidney. Nature of the assay: Expression of SLE-associated genes in the kidney of SLE model mice, overall statement. Format: in vivo. Particulars: NZB/WF1 mice, oral, 10 weeks, Drug A 30 mg/kg twice a day, Drug B 3 mg/kg once a day, Dunnett's test vs control. Here is the method: as §1, §2, §3, §4
as §5, with “portions.” for “portions. After that, the kidney was subjected to RNase inactivation treatment that involves immersing the kidney in RNAlater (manufactured by QIAGEN GmbH) at 4° C. for 24 hours.”

SMILES strings stand for the structures.

For `CSc1ccc(-c2nn(Cc3ccccc3)c(=O)cc2-c2ccc(Cl)cc2)cc1` [Drug A, 2-benzyl-5-(4-chlorophenyl)-6-[4-(methylthio)phenyl]-2H-pyridazine-3-one], in assay [1], the “IFN-γ Relative index” value is 0.857 and the “IFN-γ mRNA expression level (%)” value came to 85.7 ± 27.1%. For the same compound, in assay [2], the “TNF-α Relative index” value was 0.634 and the “TNF-α mRNA expression level (%)” value was found to be 63.4 ± 13.5%. Also, in assay [3], the “IL-1β Relative index” value was 1.266 and the “IL-1β mRNA expression level (%)” value is on record as 126.6 ± 50.3%. For the same compound, in assay [4], the “BAFF Relative index” value is 1.135 and the “BAFF mRNA expression level (%)” value stood at 113.5 ± 13.7%. For the same compound, in assay [5], the “IFIT1 Relative index” value stood at 0.721 and the “IFIT1 mRNA expression level (%)” value stood at 72.1 ± 15.6%. Further, in assay [6], the “IP-10 Relative index” value worked out at 0.883 and the “IP-10 mRNA expression level (%)” value is 88.3 ± 18.1%. In addition, the “action on the expression of SLE-associated genes in the kidney (in words)” value (shortened to “action on the expression”) in assay [7] is on record as “exhibited no action on the expression of SLE-associated genes in the kidney of this model or exhibited only a tendency to slightly suppress the expression”. Moreover, the “action on the expression” value in assay [7] (listed as 2-benzyl-5-(4-chlorophenyl)-6-[4-(methylthio)phenyl]-2H-pyridazine-3-one) was “there was not confirmed a significant action of suppressing the expression of SLE-associated genes in the kidney”.
As to `C[C@]12C=CC(=O)C=C1CC[C@@H]1[C@@H]2[C@@H](O)C[C@@]2(C)[C@H]1CC[C@]2(O)C(=O)CO` [Drug B, prednisolone, reference compound], in assay [1], the “IFN-γ Relative index” value was determined as 0.360 and the “IFN-γ mRNA expression level (%)” value is 36.0 ± 13.1%. For the same compound, in assay [2], the “TNF-α Relative index” value worked out at 0.522 and the “TNF-α mRNA expression level (%)” value is 52.2 ± 13.2%. In assay [3], the “IL-1β Relative index” value worked out at 0.661 and the “IL-1β mRNA expression level (%)” value is given as 66.1 ± 21.9%. Also, in assay [4], the “BAFF Relative index” value is 0.722 and the “BAFF mRNA expression level (%)” value is recorded as 72.2 ± 13.1%. Also, in assay [5], the “IFIT1 Relative index” value is 0.786 and the “IFIT1 mRNA expression level (%)” value was found to be 78.6 ± 15.0%. Moreover, in assay [6], the “IP-10 Relative index” value is 0.635 and the “IP-10 mRNA expression level (%)” value amounted to 63.5 ± 9.9%. Moreover, the “action on the expression” value in assay [7] is on record as “exhibited a tendency to suppress the expression of any gene”.
